In experiment [1] the target is T1, Serine/threonine-protein kinase TBK1 (Homo sapiens) (UniProt Q9UHD2).
T1 sequence (whole entry): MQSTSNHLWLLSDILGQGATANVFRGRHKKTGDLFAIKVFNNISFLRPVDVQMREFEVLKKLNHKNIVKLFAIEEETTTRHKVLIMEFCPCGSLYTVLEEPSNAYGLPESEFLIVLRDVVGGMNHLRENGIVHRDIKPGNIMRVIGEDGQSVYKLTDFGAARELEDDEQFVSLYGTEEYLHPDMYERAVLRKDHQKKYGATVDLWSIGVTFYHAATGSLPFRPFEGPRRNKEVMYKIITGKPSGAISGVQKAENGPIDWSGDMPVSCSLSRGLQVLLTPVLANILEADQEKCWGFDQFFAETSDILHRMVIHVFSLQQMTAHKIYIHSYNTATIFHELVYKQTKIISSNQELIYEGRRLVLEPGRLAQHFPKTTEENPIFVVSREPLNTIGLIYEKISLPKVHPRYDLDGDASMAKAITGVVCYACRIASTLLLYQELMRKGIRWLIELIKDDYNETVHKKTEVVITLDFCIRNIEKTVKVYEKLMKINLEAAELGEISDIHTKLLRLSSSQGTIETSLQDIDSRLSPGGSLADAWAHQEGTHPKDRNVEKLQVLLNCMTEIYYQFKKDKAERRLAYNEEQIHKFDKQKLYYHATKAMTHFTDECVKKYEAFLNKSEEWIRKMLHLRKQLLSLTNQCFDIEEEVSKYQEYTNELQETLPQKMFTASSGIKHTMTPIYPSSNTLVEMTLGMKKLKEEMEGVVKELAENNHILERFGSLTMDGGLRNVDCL
Briefly: Selectivity interaction (ProQinase) EUB0000171b TBK1.

Experiment [2] deals with Mitogen-activated protein kinase 10 (Homo sapiens, UniProt P53779). Kind of experiment: Selectivity interaction (Ambit KINOMEscan and KiNATiv profiling in Jurkat cells) EUB0000090b MAPK10. In kind it is cell-based. Particulars: at 1 µM.
In experiment [3] the target is Serine/threonine-protein kinase PLK3 (Homo sapiens, UniProt Q9H4B4). Kind of experiment: Selectivity interaction (KinomeScan (DiscoverX)) EUB0001079a PLK3. Particulars: at 1 µM.
The target of experiment [4] is T2, Dual specificity tyrosine-phosphorylation-regulated kinase 2 (Homo sapiens) (UniProt Q92630).
T2 sequence (whole entry): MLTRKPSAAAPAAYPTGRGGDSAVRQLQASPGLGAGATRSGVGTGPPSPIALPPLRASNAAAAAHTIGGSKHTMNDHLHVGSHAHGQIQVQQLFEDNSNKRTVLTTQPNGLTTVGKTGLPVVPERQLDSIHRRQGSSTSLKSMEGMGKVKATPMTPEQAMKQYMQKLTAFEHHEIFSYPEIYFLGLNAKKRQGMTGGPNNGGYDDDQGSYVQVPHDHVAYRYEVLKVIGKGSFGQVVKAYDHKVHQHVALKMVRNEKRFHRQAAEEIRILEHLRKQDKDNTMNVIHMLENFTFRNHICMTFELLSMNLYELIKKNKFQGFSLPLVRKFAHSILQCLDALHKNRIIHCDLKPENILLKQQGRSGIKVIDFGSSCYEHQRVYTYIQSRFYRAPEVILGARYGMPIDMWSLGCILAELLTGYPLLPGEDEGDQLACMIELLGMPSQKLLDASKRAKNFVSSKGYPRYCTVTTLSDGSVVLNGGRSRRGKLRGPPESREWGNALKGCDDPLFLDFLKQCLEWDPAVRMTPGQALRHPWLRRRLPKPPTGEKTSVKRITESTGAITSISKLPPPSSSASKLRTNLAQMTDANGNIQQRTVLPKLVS
Kind of experiment: Selectivity interaction (KinomeScan (DiscoverX)) EUB0001079a DYRK2. Particulars: at 1 µM.

Experiment [5] has as its target Ephrin type-A receptor 7 (Homo sapiens) (UniProt Q15375). Kind of experiment: Selectivity interaction (KinomeScan (DiscoverX)) EUB0001079a EPHA7. Particulars: at 1 µM.
Experiment [6] addresses T3, MAP kinase-activated protein kinase 5 (Homo sapiens) (UniProt Q8IW41).
T3 sequence (whole entry): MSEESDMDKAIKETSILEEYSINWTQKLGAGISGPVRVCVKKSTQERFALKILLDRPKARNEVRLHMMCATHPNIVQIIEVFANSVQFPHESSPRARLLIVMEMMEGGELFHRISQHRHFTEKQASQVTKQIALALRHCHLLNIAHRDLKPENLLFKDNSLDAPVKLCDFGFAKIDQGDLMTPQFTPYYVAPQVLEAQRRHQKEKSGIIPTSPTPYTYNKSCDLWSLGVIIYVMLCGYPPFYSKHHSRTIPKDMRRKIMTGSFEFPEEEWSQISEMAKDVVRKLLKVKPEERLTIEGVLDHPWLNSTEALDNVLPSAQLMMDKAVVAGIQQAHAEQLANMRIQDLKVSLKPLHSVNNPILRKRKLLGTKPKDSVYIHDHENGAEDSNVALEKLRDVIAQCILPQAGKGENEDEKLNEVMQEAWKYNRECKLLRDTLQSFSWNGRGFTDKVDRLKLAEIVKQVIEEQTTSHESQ
Briefly: Selectivity interaction (KinomeScan (DiscoverX)) EUB0001079a MAPKAPK5. Particulars: at 1 µM.

The target of experiment [7] is Tyrosine-protein kinase Lyn (Homo sapiens, UniProt P07948). Kind of experiment: Selectivity interaction (KinomeScan (DiscoverX)) EUB0000092b LYN. Particulars: at 10 µM.
Chain of Tyrosine-protein kinase Lyn (P07948 2-512 limits assumed): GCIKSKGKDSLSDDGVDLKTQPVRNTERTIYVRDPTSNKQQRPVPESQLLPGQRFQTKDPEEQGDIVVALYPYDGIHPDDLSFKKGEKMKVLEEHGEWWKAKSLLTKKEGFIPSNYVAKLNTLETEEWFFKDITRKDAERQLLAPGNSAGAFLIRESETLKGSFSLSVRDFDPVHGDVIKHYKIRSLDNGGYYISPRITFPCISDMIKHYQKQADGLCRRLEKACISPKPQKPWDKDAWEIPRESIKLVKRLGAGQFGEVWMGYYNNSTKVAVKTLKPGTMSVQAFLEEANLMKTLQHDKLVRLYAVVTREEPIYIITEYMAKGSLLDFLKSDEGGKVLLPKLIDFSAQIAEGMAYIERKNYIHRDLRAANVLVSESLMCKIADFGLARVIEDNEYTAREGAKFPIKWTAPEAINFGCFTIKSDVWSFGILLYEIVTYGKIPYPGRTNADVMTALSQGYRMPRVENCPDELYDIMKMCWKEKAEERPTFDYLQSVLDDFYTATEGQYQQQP
Experiment [8] relates to Phosphatidylinositol 4,5-bisphosphate 3-kinase catalytic subunit alpha isoform (Homo sapiens), P42336 [E545K]. Kind of experiment: (§1) Selectivity interaction (KinomeScan (DiscoverX)) EUB0000092b PIK3CA. Particulars: at 10 µM.
For experiment [9], the system named is Phosphatidylinositol 4,5-bisphosphate 3-kinase catalytic subunit alpha isoform (Homo sapiens), P42336 [E545A]. Described as §1. Particulars: at 10 µM.
The test system of experiment [10] is Phosphatidylinositol 4,5-bisphosphate 3-kinase catalytic subunit alpha isoform (Homo sapiens), P42336 [Q546K]. The experiment is described as §1. Particulars: at 10 µM.
The subject of experiment [11] is Phosphatidylinositol 4,5-bisphosphate 3-kinase catalytic subunit alpha isoform (Homo sapiens), P42336 [E542K]. The experiment is described as §1. Particulars: at 10 µM.
Experiment [12] concerns Phosphatidylinositol 4,5-bisphosphate 3-kinase catalytic subunit alpha isoform (Homo sapiens), P42336 [H1047L]. Described as §1. Particulars: at 10 µM.
Chain of Phosphatidylinositol 4,5-bisphosphate 3-kinase catalytic subunit alpha isoform (Homo sapiens), P42336 [H1047L] (P42336 whole entry H1047L, canonical isoform): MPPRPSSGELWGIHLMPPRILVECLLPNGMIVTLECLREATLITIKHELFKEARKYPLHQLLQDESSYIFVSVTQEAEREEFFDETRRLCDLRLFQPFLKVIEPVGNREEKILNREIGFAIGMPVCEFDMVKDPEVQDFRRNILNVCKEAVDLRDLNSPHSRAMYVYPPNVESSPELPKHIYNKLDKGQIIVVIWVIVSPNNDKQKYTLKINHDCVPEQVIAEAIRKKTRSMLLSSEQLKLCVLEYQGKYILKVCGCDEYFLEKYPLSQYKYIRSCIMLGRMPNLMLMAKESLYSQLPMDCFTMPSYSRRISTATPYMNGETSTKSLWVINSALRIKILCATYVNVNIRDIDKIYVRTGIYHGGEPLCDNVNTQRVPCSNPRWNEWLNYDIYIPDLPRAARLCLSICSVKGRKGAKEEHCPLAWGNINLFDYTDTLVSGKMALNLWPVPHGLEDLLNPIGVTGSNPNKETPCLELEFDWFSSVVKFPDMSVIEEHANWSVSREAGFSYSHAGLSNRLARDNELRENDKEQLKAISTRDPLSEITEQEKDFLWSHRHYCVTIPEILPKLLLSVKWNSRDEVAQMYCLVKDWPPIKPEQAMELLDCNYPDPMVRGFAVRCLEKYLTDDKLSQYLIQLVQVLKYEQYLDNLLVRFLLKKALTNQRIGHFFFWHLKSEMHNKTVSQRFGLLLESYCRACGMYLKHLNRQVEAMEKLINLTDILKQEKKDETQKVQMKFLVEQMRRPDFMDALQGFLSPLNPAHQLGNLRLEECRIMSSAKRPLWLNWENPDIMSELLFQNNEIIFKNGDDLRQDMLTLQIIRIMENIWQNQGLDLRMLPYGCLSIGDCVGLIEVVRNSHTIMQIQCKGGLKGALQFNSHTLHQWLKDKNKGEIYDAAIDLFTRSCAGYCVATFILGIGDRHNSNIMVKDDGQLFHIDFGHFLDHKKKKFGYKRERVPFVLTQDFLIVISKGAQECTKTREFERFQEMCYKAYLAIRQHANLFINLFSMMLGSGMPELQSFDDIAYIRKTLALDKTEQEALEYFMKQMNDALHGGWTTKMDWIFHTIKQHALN
The subject of experiment [13] is Phosphatidylinositol 4,5-bisphosphate 3-kinase catalytic subunit alpha isoform (Homo sapiens), P42336 [C420R]. Described as §1. Particulars: at 10 µM.
Experiment [14] has as its system Phosphatidylinositol 4,5-bisphosphate 3-kinase catalytic subunit alpha isoform (Homo sapiens), P42336 [M1043I]. Described as §1. Particulars: at 10 µM.
The target in experiment [15] is Macrophage-stimulating protein receptor (Homo sapiens, UniProt Q04912). Kind of experiment: Selectivity interaction (Kinase screening (Nanosyn)) EUB0000604a MST1R.
Chain of Macrophage-stimulating protein receptor (Q04912 25-304 limits assumed): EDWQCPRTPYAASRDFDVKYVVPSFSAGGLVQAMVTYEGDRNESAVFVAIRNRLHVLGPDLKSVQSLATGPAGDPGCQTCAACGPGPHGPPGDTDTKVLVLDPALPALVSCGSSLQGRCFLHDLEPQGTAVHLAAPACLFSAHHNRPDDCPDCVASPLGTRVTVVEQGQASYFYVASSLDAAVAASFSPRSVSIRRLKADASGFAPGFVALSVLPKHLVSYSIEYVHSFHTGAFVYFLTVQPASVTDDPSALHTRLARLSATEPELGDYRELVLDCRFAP
Chain of Macrophage-stimulating protein receptor (Q04912 310-1400 limits assumed): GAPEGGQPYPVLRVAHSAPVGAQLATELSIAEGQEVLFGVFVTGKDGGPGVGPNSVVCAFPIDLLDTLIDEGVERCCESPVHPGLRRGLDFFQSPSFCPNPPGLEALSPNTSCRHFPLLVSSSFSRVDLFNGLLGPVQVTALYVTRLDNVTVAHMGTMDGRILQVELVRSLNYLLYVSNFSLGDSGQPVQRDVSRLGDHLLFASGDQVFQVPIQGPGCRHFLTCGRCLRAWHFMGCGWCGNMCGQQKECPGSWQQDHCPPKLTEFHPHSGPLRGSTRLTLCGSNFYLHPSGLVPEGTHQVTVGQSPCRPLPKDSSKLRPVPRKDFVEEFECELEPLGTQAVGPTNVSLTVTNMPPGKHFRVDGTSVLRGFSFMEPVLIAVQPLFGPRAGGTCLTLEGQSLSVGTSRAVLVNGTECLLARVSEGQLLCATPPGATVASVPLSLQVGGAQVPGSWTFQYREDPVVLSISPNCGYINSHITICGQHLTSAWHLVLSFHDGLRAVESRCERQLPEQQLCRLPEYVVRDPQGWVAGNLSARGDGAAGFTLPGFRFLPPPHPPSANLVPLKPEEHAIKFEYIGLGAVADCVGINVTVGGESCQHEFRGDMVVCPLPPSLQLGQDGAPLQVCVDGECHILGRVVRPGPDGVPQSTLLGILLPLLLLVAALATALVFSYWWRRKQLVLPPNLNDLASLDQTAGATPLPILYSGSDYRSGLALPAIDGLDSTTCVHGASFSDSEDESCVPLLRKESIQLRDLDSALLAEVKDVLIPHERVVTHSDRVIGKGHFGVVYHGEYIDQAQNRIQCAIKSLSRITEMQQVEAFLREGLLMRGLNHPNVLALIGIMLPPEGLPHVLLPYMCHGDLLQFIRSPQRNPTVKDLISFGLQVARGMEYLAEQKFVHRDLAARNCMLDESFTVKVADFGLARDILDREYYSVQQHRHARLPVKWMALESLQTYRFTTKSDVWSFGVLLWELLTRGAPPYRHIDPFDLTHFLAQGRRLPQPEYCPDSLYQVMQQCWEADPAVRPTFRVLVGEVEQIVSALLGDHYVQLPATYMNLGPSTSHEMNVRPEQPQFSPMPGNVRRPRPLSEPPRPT
Experiment [16] deals with Glutamate receptor ionotropic, NMDA 1 (Homo sapiens) (UniProt Q05586). Briefly: Selectivity interaction (Eurofins CEREP Diversity Profile (receptors and ion channels)) EUB0000279b GRIN1. Particulars: at 10 µM.
Experiment [17] concerns the target Dual specificity protein kinase CLK2 (Homo sapiens, UniProt P49760). Kind of experiment: Selectivity interaction (KinomeScan (DiscoverX)) EUB0000666a CLK2. Particulars: at 10 µM.
The target in experiment [18] is Cyclin-dependent kinase 9 (Homo sapiens, UniProt P50750). Briefly: Selectivity interaction (KinomeScan (DiscoverX)) EUB0000666a CDK9. Particulars: at 10 µM.
The target in experiment [19] is Tyrosine-protein kinase SYK (Homo sapiens, UniProt P43405). Kind of experiment: Selectivity interaction (KinomeScan (DiscoverX)) EUB0000607a SYK. Particulars: at 10 µM.

The structures appear in SMILES notation.

Chain of Phosphatidylinositol 4,5-bisphosphate 3-kinase catalytic subunit alpha isoform (Homo sapiens), P42336 [M1043I] (P42336 whole entry M1043I, canonical isoform): as the sequence (P42336 whole entry H1047L, canonical isoform) above, with M1043I, L1047H counted along it
Chain of Ephrin type-A receptor 7 (Homo sapiens) (Q15375 28-998 limits assumed): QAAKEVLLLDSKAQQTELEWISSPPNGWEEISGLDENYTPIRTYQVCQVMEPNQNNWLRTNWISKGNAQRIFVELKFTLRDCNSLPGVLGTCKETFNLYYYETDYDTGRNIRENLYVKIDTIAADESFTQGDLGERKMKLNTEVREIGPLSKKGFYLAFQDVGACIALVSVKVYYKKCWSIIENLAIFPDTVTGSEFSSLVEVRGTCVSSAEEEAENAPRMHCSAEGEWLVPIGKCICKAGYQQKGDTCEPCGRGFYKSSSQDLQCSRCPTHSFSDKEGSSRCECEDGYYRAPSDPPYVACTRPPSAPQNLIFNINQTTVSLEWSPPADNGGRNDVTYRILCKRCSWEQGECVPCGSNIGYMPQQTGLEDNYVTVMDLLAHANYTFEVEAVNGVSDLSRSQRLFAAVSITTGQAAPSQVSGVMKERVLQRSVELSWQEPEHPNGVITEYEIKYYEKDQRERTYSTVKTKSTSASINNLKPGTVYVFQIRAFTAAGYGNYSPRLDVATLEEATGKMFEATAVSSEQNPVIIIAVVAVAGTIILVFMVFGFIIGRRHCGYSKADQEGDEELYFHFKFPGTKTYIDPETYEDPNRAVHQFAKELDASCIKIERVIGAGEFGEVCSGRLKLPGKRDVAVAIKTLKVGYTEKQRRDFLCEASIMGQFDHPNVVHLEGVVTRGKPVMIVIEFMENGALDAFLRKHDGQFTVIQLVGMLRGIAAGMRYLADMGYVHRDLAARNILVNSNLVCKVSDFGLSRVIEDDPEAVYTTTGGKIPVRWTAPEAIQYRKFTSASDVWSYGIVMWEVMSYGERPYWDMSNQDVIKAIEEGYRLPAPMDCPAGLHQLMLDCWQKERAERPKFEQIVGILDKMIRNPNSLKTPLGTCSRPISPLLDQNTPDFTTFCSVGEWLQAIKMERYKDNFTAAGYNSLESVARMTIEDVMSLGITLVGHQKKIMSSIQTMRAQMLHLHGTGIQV

For `C=CC(=O)Nc1cccc(C(=O)Nc2ccc(Nc3cc(-c4[nH]c(SC)nc4C)ccn3)cc2)c1`, the % of control is 84% in experiment [1] (at 1 µM) and 69% in [1] (at 5 µM).
For the compound `CN(C)C/C=C/C(=O)Nc1ccc(C(=O)N2CCCC(Nc3ncc(Cl)c(-c4c[nH]c5ccccc45)n3)C2)cc1` (stereo not given), the % of control in experiment [2] is 1%.
For the compound `Nc1cnc(N2CCc3cc(S(=O)(=O)Nc4c(F)cc(Cl)cc4F)cc(N4CCCC4=O)c32)nc1` [TP-020n], the % of control in [3] was found to be 100%; in [4], 89%; in experiment [5] it was 85%; in experiment [6], 92%.
`CCC(=O)N1CCN(c2ccc(-n3c(=O)ccc4cnc5ccc(-c6cnc7ccccc7c6)cc5c43)cc2C(F)(F)F)CC1`: the % of control in experiment [7] was 79%; in experiment [8], 0.6%; in experiment [9], 1%; in experiment [10], 6.8%; in experiment [11], 1%; in experiment [12], 2.6%. The results for the % of control in experiment [13] and in [14] were 0.7% and 8.6%, respectively.
For the compound `Cc1cnc(Nc2ccc(F)cc2Cl)nc1-c1c[nH]c(C(=O)N[C@H](CO)c2cccc(Cl)c2)c1`, in [15], the % of inhibition turned out to be 1%.
In [16], `CC(=O)c1cc(-c2ccccc2OCC2CC2)c2ncccn12` showed a % of control of 106%.
Regarding `O=C(NOC[C@H](O)CO)c1ccc(F)c(F)c1Nc1ccc(I)cc1F`, the figures for the % of control in experiment [17] and in [18] were 96% and 76%, respectively.
`CNC(=O)Nc1ccc(-c2nc(N3CC4CCC(C3)O4)c3cnn(C4CCC5(CC4)OCCO5)c3n2)cc1` showed a % of control in experiment [19] of 100%.

The record behind these values is ChEMBL document CHEMBL5465560, “Selectivity Literature for EUbOPEN Chemogenomic Library” (2024).
